Molecular target: T1, platelet P2Y1 receptor (Homo sapiens, UniProt P47900)
T1 construct: expressed in transfected cells
Experiment: P2Y1 receptor binding assay ([β-33P]-2-thiomethyl ADP)
Conditions: binding of 0.3 nM [β-33P]-2-thiomethyl ADP, hP2Y1 expressing 132N1 cell membrane, 25° C., 60 minutes
Experimental: Conducting P2Y, Receptor Binding Assay
[β−^33P]-2-thiomethyl ADP (2100 Ci/mmol) was purchased from PerkinElmer, Protease Inhibitors Complete, EDTA-free, was purchased from Roche, and ADP (Adenosine diphosphate), MRS2179, and 2-thiomethy ADP (2-Me-S-ADP) were purchased from Sigma Chemical Co.
Binding of 0.3 nM [β-^33P]-2-thiomethyl ADP to platelet P2Y1 receptor in 132N1 cell membrane was carried out in triplicate at 25° C. with 96 well plate (Corning, 3365). Nonspecific binding was defined as binding in the presence of 1 μM of 2-Me-S-ADP. One […] of dimethyl sulfoxide (DMSO) or 1 μL of DMSO (Sigma-Aldrich, 472301) containing a test compound diluted to final assay concentrations of 0.1 nM to 1 mM were placed into each well of a Corning 96-well plate. A volume of 60 μL of buffer: 50 mM Tris pH 7.5 (Sigma, T-2194), 1 mM EDTA (Gibco, 15575-038) and 100 mM NaCl (Gibco, 200740-011) containing 0.3 nM [β-^33P]-2-thiomethyl ADP 40 μL of hP2Y1 expressing 132N1 cell membrane prep was added to each well. After incubation on shaker for 60 minutes, The contents of the wells are filtered and washed 8 times with Tomtec Cell Harvester through UniFilter 96, GF/B plates (PerkinElmer, 6005177) Forty five microliters […] Scintillation cocktail (Ultima-Flo-M) was added into each well and plates counted on a Trilux Microbeta Counter.
• 1. Add 1 μL DMSO or compounds into the wells according to the protocol. • 2. Add 60 μL incubation buffer with [β-^33P]-2-thiomethyl ADP into each well. • 3. Add 40 μL hP2Y1 expressing 132N1 cell membrance prep. Incubate 60 minutes on top of the shaker (IKA Shutter MTS4). • 4. Filter and wash 8× with Tomtec Cell Harvester through UniFilter GF/B plates (PerkinElmer, 6005177). • 5. Add 45 μL scintillation cocktail into each well and plates counted on a Trilux Microbeta Counter.

T1 sequence (P47900 whole entry): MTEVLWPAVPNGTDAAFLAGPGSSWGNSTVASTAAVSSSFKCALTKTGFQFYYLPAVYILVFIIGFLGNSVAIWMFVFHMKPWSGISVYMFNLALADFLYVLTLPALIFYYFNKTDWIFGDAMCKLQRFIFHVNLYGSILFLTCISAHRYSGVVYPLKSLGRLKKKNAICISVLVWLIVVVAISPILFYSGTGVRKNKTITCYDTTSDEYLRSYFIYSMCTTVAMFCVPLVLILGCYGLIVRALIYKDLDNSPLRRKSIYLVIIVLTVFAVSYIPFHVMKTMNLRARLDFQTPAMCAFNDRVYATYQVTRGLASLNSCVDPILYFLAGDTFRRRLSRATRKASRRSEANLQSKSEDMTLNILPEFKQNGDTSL

Compound | IC50 [nM]
Cc1cc(Oc2ccccc2NC(=O)Nc2ccc(Br)cc2)n(-c2ccccc2Cl)n1 [Example 126, 1-(4-bromophenyl)-3-(2-(1-(2-chlorophenyl)-3-methyl-1H-pyrazol-5-yloxy)phenyl)urea] | 170
CCc1ccccc1-n1nc(C)cc1Oc1ccccc1NC(=O)Nc1ccc(C(F)(F)F)cc1 [Example 107, 1-(2-(1-(2-ethylphenyl)-3-methyl-1H-pyrazol-5-yloxy)phenyl)-3-(4-(trifluoromethyl)phenyl)urea] | 60
COc1ccc(-n2nc(C)cc2Oc2ccccc2NC(=O)Nc2ccc(OC(F)(F)F)cc2)cc1 [Example 18] | 731
CC(C)(C)c1ccc(NC(=O)Nc2ccccc2Oc2cc(C(=O)O)nn2-c2ccccc2)cc1 [Example 27, 5-{2-[3-(4-tert-Butyl-phenyl)-ureido]-phenoxy}-1-phenyl-1H-pyrazole-3-carboxylic acid] | 7220
CCc1ccccc1-n1nc(C)cc1Oc1ccccc1NC(=O)Nc1ccc(C(F)(F)F)cc1F [Example 93, 1-(2-(1-(2-ethylphenyl)-3-methyl-1H-pyrazol-5-yloxy)phenyl)-3-(2-fluoro-4-(trifluoromethyl)phenyl)urea] | 123
Cc1cc(Oc2ccccc2NC(=O)Nc2ccc(OC(F)(F)F)cc2)n(-c2ccccc2Cl)n1 [Example 2, 1-{2-[2-(2-Chloro-phenyl)-5-methyl-2H-pyrazol-3-yloxy]-phenyl}-3-(4-trifluoromethoxy-phenyl)-urea] | 89
CCc1ccccc1-n1nc(C)cc1Oc1ccccc1NC(=O)Nc1ccc(Oc2ccccc2)cc1 [Example 92, 1-(2-(1-(2-ethylphenyl)-3-methyl-1H-pyrazol-5-yloxy)phenyl)-3-(4-phenoxyphenyl)urea] | 182
COC(C)c1ccc(NC(=O)Nc2ccccc2Oc2cc(C)nn2-c2ccccc2Cl)cc1 (stereo not shown) [Example 116, 1-(2-(1-(2-chlorophenyl)-3-methyl-1H-pyrazol-5-yloxy)phenyl)-3-(4-(1-methoxyethyl)phenyl)urea] | 1120
Cc1cc(Oc2ccccc2NC(=O)Nc2ccc(OC(F)(F)F)cc2)n(-c2ccc(Cl)cc2)n1 [Example 13] | 246
CCc1ccccc1-n1nc(C)cc1Oc1ccccc1NC(=O)Nc1ccc(OC(F)(F)F)cc1Cl [Example 94, 1-(2-chloro-4-(trifluoromethoxy)phenyl)-3-(2-(1-(2-ethylphenyl)-3-methyl-1H-pyrazol-5-yloxy)phenyl)urea] | 8780
Cc1cc(Oc2ccccc2NC(=O)Nc2ccccc2Br)n(-c2ccccc2)n1 [Example 82] | > 10000
CCc1ccccc1-n1nc(C)cc1Oc1ccccc1NC(=O)Nc1ccc(-n2cncn2)cc1 [Example 112, 1-(4-(1H-1,2,4-triazol-1-yl)phenyl)-3-(2-(1-(2-ethylphenyl)-3-methyl-1H-pyrazol-5-yloxy)phenyl)urea] | > 10000
Cc1cc(Oc2ccccc2NC(=O)Nc2c(C)cccc2C(C)(C)C)n(-c2ccccc2)n1 [Example 77] | > 10000
